Assay results reported in ChEMBL document CHEMBL3751675, “Characterization of isobutylhydroxyamides with NGF-potentiating activity from Zanthoxylum bungeanum” (Bioorg Med Chem Lett, 2016).
Active and inactive are the calls of the source. The calls are words filed in the database; no cut-off is given here.

Key:
HCT-116 = test: Cytotoxicity against human HCT116 cells at 50 uM; type: functional, cell-based
PC-12 = test: Stimulation of NGF-induced neurite outgrowth in rat PC12 cells at 20 uM incubated for 48 hrs by phase contrast microscopy; type: functional, cell-based
[1] = Cytotoxicity against rat PC12 cells assessed as reduction in cell viability up to 50 uM by MTT assay; type: cell-based; conditions: pc-12
[2] = Antioxidant activity assessed as DPPH radical scavenging activity at 50 uM; type: physicochemical
[3] = Cytotoxicity against NF1 and p53 deficient mouse glioma cells assessed as growth inhibition at 2 ug/ml after 2 days; type: functional; conditions: Glioma cell, 48 h
[4] = biological target: T1, Peroxisome proliferator-activated receptor (Homo sapiens, UniProt P37231+Q07869+Q03181); test: Activation of PPAR (unknown origin) transactivation expressed in human HepG2 cells assessed as increase in transcriptional activity after 20 hrs by PPRE-luciferase reporter gene assay; type: cell-based
T1 sequence (P37231 whole entry): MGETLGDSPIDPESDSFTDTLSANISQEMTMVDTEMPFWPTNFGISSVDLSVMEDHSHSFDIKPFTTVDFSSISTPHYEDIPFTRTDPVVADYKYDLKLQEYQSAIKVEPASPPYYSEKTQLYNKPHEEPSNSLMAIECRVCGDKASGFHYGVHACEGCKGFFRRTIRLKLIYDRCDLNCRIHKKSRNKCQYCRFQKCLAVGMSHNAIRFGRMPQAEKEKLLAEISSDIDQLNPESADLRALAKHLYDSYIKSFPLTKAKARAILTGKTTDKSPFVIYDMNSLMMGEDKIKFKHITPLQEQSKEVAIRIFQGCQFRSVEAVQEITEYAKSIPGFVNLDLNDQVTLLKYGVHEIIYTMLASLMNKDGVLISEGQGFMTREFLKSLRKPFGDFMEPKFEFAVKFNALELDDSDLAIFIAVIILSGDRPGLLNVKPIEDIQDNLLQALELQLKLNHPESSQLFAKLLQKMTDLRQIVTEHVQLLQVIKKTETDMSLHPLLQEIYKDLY
T1 sequence (Q07869 whole entry): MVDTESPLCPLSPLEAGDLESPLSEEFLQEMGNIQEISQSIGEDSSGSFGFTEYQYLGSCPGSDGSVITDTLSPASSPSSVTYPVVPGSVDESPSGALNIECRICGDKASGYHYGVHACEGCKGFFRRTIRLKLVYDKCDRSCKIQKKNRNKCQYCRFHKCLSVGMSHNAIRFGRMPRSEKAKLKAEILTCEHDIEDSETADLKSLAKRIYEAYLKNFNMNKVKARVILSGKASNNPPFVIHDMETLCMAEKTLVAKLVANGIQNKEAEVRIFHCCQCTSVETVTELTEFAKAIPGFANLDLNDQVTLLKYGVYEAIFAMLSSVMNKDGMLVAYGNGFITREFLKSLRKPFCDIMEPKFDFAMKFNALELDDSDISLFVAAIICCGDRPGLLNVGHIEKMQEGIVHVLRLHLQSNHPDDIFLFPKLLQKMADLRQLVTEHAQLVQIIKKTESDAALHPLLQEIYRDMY
T1 sequence (Q03181 whole entry): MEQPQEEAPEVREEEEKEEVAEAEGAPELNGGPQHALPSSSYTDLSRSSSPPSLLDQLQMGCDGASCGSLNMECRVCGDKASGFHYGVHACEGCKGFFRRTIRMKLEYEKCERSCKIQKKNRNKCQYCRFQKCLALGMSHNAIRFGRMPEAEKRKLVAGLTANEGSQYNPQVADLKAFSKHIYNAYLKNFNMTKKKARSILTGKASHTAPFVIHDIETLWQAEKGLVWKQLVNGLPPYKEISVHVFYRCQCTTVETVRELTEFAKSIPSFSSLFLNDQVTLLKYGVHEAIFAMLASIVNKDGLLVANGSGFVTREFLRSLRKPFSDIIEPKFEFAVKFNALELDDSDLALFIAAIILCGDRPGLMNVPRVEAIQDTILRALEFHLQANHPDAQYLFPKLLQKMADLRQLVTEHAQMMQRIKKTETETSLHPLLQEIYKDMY

[5] = Cytotoxicity against rat PC12 cells assessed as induction of morphological changes at 20 uM after 48 hrs by phase contrast microscopy in absence of NGF; type: cell-based; conditions: pc-12, 48 h

| SMILES | Activity (HCT-116) | Activity (PC-12) | Activity [1] | Activity [2] | inhibition at 2 µg/mL [3] [%] | EC50 [4] [µM] | Activity [5] |
| --- | --- | --- | --- | --- | --- | --- | --- |
| CC(=O)/C=C/C=C/C(O)CC/C=C/C(=O)NCC(C)(C)O (centres undefined) | inactive | Active | Non-toxic | Not Active | 52 | 19.1 | – |
| CC(O)/C=C/C=C/C(=O)CC/C=C/C(=O)NCC(C)(C)O (centres undefined) | – | – | Non-toxic | – | – | – | – |
| C[C@H](O)[C@@H](O)/C=C/C=C/CC/C=C/C(=O)NCC(C)(C)O | inactive | Active | Non-toxic | Not Active | 56 | 12 | Non-toxic |
| CC(O)/C=C/C=C/C(=O)C/C=C/C(=O)NCC(C)(C)O (centres undefined) | inactive | Active | Non-toxic | Not Active | – | – | – |
| C[C@H](O)[C@H](O)/C=C/C=C\CC/C=C/C(=O)NCC(C)(C)O | inactive | Active | Non-toxic | Not Active | 31 | – | Non-toxic |
| CCOC(/C=C/C=C/C(C)O)CC/C=C/C(=O)NCC(C)(C)O (centres undefined) | – | – | Non-toxic | – | – | – | – |
| CC(O)/C=C/C=C/C(O)CC/C=C/C(=O)NCC(C)(C)O (centres undefined) | inactive | Active | Non-toxic | Not Active | 41 | – | – |
| CCOC(C)/C=C/C=C/C(O)CC/C=C/C(=O)NCC(C)(C)O (centres undefined) | inactive | Active | Non-toxic | Not Active | – | – | – |
